According to patent publication US20250281453A1, “COMBINATION THERAPIES COMPRISING QTX125” (QUIMATRYX, S.L., priority 2022, published 2025):

What was measured:
[1] = system: HCT-116 colonic cancer cells; assay: Cell viability, ALAMAR blue assay, monotherapy; type: cell-based
Experimental: (§1) In brief, HCT-116, MiaPaCa-2 and Panc-1 cells were thawed in high glucose DMEM (Sigma D5796) with 10% heat-inactivated Foetal Calf Serum (FCS) (PAA, A15-101)). Hep-G2 and SK-Hep1 cells were thawed in Minimum Essential Media (MEM) (Sigma M2279) with 1% non-essential amino acids (Sigma M7145), 2 mM Glutamine (Sigma G7513) and 10% FCS. SK-OV-3 cells were thawed in McCoy's 5A medium (Sigma, M8403) with 15% FCS. All cells were passaged by washing once in cation-free dPBS (Sigma, D1408), and incubated for 3 minutes with trypsin ([0.5 μg/ml]/EDTA [0.2 μg/ml] (Sigma, T4174) in dPBS). Passage was completed at 37° C., and cells were transferred to the appropriate media. Prior to seeding at defined cell density, cells were recovered in medium, centrifuged and resuspended for counting.
(§2) To prepare cells for viability assays, cells were transferred into 96 well tissue culture plates (Cultek), and resuspended in 100 µL at the following densities: 10,000 cells/well (Hep-G2 and MiaPaCa-2), 5000 cells/well (Panc-1 and SK-OV-3) or 3000 cells/well (HCT-116). Following 24 hours of incubation, media was removed and replaced with 100 µL media spiked with QTX125 and the test chemotherapeutic agents. Stock solutions for the agents used in this study are shown below in Table 1. Cells were incubated for a further 72 hours before cell viability was assessed using both ALAMAR® and hexosaminidase assays.
(§3) For the ALAMAR® blue assay, media containing QTX125 and the test chemotherapeutic agents was removed, and cells were stained using ALAMAR® blue (BioSource DAL 1100) for 4 hours at 37° C., following the manufacturer's instructions. Relative fluorescent intensity was measured using a Cytofluor® plate reader (Millipore) at 535/590 nm (Excitation/emission). This measure directly correlates with the number of viable cells present in each well.
(§4) A number of appropriate control samples were included. First, absorbance values measured in reagent ‘blank’ wells (containing cell culture medium and colorimetric agent only) were subtracted from ‘test’ sample-containing wells. ‘Blank’ absorbance values were routinely between 5 and 10% of the values recorded in test wells. Absorbance values recorded in test wells were then compared against wells containing (i) cells stimulated with QTX125 only; (ii) cells stimulated with sorafenib, gemcitabine or bortezomib only and/or (iii) unstimulated cells, as appropriate.
(§5) Control values were normalised to 100% and percentage (%) viability was calculated. Data were used to plot log dose-response curves using a sigmoid dose-response (variable slope) equation. EC50 values were obtained using Equation 1, where ‘X’ is the logarithmic concentration; ‘Y’ is the response output and it is assumed that Y starts at bottom of the graph and reaches the top with an overall sigmoid shape.
(§6) Prior to assessing the oncolytic efficacy of QTX125-containing combination therapies, the oncolytic effect of each test agent was assessed in isolation. Dose-response curves were produced by serial dilution (1:1), thereby allowing monotherapy EC50 values to be calculated.
(§7) Chemotherapeutic agents were added to wells at a starting concentration of 100 μM. However, it was quickly determined that it was not possible to use this range for all chemotherapeutic agents tested. An optimization study was therefore completed to identify suitable maximum (‘high’) doses for each agent and in each individual cell line.

[2] = system: Hep-G2 hepatic cancer cells; assay: Cell viability, ALAMAR blue assay, monotherapy; type: cell-based
Experimental: as §1, §2, §3, §4, §5, §6, §7

[3] = system: MiaPaCa-2 pancreatic cancer cells; assay: Cell viability, ALAMAR blue assay, monotherapy; type: cell-based
Experimental: as §1, §2, §3, §4, §5, §6, §7

[4] = system: Panc-1 pancreatic cancer cells; assay: Cell viability, ALAMAR blue assay, monotherapy; type: cell-based
Experimental: as §1, §2, §3, §4, §5, §6, §7

[5] = system: SK-OV-3 ovarian cancer cells; assay: Cell viability, ALAMAR blue assay, monotherapy; type: cell-based
Experimental: as §1, §2, §3, §4, §5, §6, §7

[6] = Genotoxicity (clastogenicity, aneugenicity); conditions: unlike other histone deacetylase inhibitors
[7] = system: multiple sclerosis mice models; conditions: two different multiple sclerosis mice models; cited from earlier work
[8] = Homo sapiens, 72 h, read-out: EC50 dose of monotherapy
[9] = 72 hours of high-dose monotherapy (Table 2: QTX125 100, sorafenib 100, gemcitabine 100, bortezomib 1 μM)

O=C(NO)c1ccc(CNC(=O)c2[nH]c(-c3ccc(O)cc3)cc2-c2ccoc2)cc1 [QTX125, 3-(3-Furyl)-N-{4-[(hydroxyamino)carbonyl]benzyl}-5-(4-hydroxyphenyl)-1 Hpyrrole-2-carboxamide]
percentage (%) cell viabilities ([1]; 72 hours of high-dose monotherapy (Table 2: QTX125 1, sorafenib 100, gemcitabine 10, bortezomib 1 μM)): 0.0%
EC50 [1, 8]: 330 nM
percentage (%) cell viabilities ([2]; 72 hours of high-dose monotherapy (Table 2: QTX125 5, sorafenib 100, gemcitabine 100, bortezomib 1 μM)): 0.0%
EC50 ([2]; Homo sapiens, HepG2, 72 h, read-out: EC50 dose of monotherapy): 910 ± 200 nM
percentage (%) cell viabilities [3, 9]: 0.0%
EC50 ([3]; Homo sapiens, MIA PaCa-2, 72 h, 72 h, read-out: EC50 dose of monotherapy): 1790 ± 50 nM
percentage (%) cell viabilities [4, 9]: 0.0%
EC50 [4, 8]: 1400 ± 150 nM
percentage (%) cell viabilities ([5]; 72 hours of high-dose monotherapy (Table 2: QTX125 10, sorafenib 100, gemcitabine 10, bortezomib 1 μM)): 0.0%
EC50 [5, 8]: 3000 ± 400 nM
genotoxicity, in particular clastogenicity or aneugenicity [6]: no evidence of genotoxicity
efficacy in multiple sclerosis mice models [7]: high efficacy
